Drawing on US20130096138A1, “NOVEL THIOUREA OR UREA DERIVATIVE, PREPARATION METHOD THEREOF, AND PHARMACEUTICAL COMPOSITION FOR PREVENTING OR TREATING AIDS, CONTAINING SAME AS ACTIVE INGREDIENT” (AVIXGEN INC., priority 2010, published 2013), this text covers IC50 for five molecules.

The structures appear in SMILES notation.

This assay deals with HIV. In words: Assay for inhibitory activity against HIV (p24 ELISA, infected MT-4 cells). Type of assay: cell-based. The note with it: Human immunodeficiency virus 1, MT4, MT-4 cells infected with pNL4-3-derived HIV, 48 hrs + additional 48 hrs culture, read-out: Conc. for Inhibition of HIV Activity (IC50). The method, then:
The thiourea or urea derivatives of the present invention were assayed for inhibitory activity against HIV as follows.
A pNL4-3 vector carrying an HIV genome was transduced into 293FT cells. […] 293FT cells were seeded at a density of 3.0×10^5 cells/well into 6-well plates containing antibiotic-free DMEM supplemented with 10% FBS and grown for 48 hrs. Upon 90˜95% confluency, the transduction was performed.
The DNA (pNL4-3) was added at a final concentration of 10 ng/mL to 250 μL of the reduced serum medium Opti-MEM I (GIBCO™, USA). Separately, 4 μL of Lipofectamine™ 2000 (Invitrogen, USA) was mixed with 250 μL of Opti-MEM I (GIBCO™), and incubated at room temperature for 5 min. The DNA (pNL4-3) was mixed at a ratio of 1:2 with the lipofectamine and reacted at room temperature for 20 min to form a DNA-lipofectamine complex. After removal of the medium from the cell culture, the DNA-lipofectamine complex was added to the cells and incubated for 4 hrs in a CO2 incubator. Then, the cell culture medium was replaced with a fresh antibiotic-free, 10% FBS-supplemented DMEM, followed by incubation for an additional 48 hrs. The HIV-infected cell culture was centrifuged at 1,500 rpm for 5 min to give a virus supernatant.
MT-4 cells were plated at a density of 1.0×10^6 cells/mL into 6-well plates containing RPMI supplemented with 10% FBS, and incubated for 4 hrs before infection at a ratio of 1:1 with the virus supernatant. The cells were incubated for 48 hrs in a CO2 incubator, after which the culture medium was replaced with a fresh one. Again, incubation was continued for an additional 72 hrs to amplify the virus. After centrifugation at 1,500 rpm for 5 min, the virus supernatant thus obtained was examined for virus density using a Virononstika HIV-1 Antigen Microelisa system kit (bioMerieux, Inc. Netherland).
2. Assay for Inhibitory Activity against HIV
The thiourea or urea derivatives prepared in Examples 1 to 94 were dissolved in DMSO to prepare respective 10 mM or 20 mM stocks, and stored at −20° C. The stocks were diluted to a starting concentration of 200 μM in DMSO before use in experiments.
MT-4 cells were suspended at a density of 4×10^5 cells in 200 μL of RPMI 1640 (Gibco, 10% FBS) per well of 24-well plates, and infected with 200 μL of a virus supernatant containing 2×10^5 pg/mL to give a total volume of 400 μL. After the stocks of the thiourea or urea derivatives were […] to 200 μM in DMSO, 2 μL of each dilution was added to the cells to a final concentration of 1 μM or less. For a positive control, 10 μM AZT (azidothymidine,Sigma, USA) was used at a final concentration of 50 nM while DMSO was used at a final concentration of 0.5% as a negative control. The cells were cultured for 48 hrs in a CO2 incubator (37° C., 5% CO2), and the culture medium was replaced by RPMI 1640 containing the thiourea or urea derivative at a final concentration of 1 μM, followed by incubation for an additional 48 hrs. Virus soups were separated from cells by centrifugation at 1,500 rpm for 5 min and then at 13,000 rpm for 5 min. ELISA for p24 concentrations was carried out using a Virononstika HIV-1 Antigen Microelisa system kit (bioMerieux, Inc. Netherland) to determine the inhibitory activity of each of the thiourea or urea derivatives against HIV.
On to `CC(C)(C)c1ccc(C(=O)NC(=S)Nc2cccc3c(O)cccc23)cc1` [Example 1, 1-(4-tert-Butyl-benzoyl)-3-(5-hydroxy-naphthalen-1-yl)-thiourea], for which the IC50 – broadly, the point on the concentration scale where inhibition reaches its midpoint – was 0.03 µM.
To `CC(C)(C)c1ccc(C(=O)NC(=S)Nc2ccccn2)cc1` [Example 37, 1-(4-tert-butyl-benzoyl)-3-(pyridin-2-yl)-thiourea] belongs 0.5 µM.
`CC(C)(C)c1ccc(C(=O)NC(=S)Nc2cccc3ncccc23)cc1` [Example 50, 1-(4-tert-butyl-benzoyl)-3-(quinolin-5-yl)-thiourea]: the half-inhibitory concentration (IC50) came to 1 µM.
The figure for `CC(C)(C)c1ccc(C(=O)NC(=S)Nc2cccc(Cl)c2)cc1` [Example 38, 1-(4-tert-butyl-benzoyl)-3-(3-chloro-phenyl)-thiourea] is 0.3 µM; for `CC(C)(C)c1ccc(C(=O)NC(=S)NC2CCCCC2)cc1` [Example 16, 1-(4-tert-butyl-benzoyl)-3-cyclohexyl-thiourea] it is 0.5 µM.
